23 compounds from patent US12643910B2, “Substituted pyrazolo[3,4-b]pyridines as ectonucleotide pyrophosphatase/phosphodiesterase 1 (ENPP1) modulators” (SANFORD BURNHAM PREBYS MEDICAL DISCOVERY INSTITUTE, priority 2019, dated 2026) can be followed below.

Experiment [1] concerns the target T1, human ENPP1 (Homo sapiens, UniProt P22413).
T1 construct: made in house
T1 sequence (P22413 1-925): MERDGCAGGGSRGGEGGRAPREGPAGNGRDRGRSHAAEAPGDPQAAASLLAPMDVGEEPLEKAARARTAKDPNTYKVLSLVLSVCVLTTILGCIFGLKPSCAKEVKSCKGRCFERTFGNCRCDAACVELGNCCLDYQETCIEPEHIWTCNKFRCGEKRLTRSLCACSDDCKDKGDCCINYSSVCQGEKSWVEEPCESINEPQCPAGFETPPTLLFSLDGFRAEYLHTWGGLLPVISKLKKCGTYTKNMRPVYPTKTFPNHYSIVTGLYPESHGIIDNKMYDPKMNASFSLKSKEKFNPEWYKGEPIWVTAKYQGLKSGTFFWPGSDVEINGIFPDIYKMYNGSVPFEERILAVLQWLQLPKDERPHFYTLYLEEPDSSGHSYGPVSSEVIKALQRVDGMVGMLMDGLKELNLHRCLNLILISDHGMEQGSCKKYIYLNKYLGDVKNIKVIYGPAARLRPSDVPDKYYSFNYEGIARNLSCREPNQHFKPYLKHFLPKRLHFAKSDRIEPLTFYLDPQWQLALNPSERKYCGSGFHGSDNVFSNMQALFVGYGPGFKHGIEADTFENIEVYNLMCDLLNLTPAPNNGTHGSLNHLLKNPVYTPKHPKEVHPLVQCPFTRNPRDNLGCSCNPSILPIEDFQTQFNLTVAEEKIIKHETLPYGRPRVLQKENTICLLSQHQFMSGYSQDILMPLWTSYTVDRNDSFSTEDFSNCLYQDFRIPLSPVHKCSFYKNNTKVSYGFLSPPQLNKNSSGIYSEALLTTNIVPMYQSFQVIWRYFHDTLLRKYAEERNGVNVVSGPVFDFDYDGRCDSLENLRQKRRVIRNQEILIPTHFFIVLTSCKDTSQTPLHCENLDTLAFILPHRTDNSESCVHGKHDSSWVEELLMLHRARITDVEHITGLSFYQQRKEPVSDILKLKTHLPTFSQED
Kind of experiment: ENPP1 assay with ATP substrate (Transcreener AMP2/GMP2 TR-FRET). To be noted: 1 hour at room temperature. It counts as biochemical. The source says:
Example B1: ENPP1 Assay with ATP Substrate
Ectonucleotide pyrophosphatase/phosphodiesterase 1 (ENPP1) hydrolyzes ATP, breaking it down into 5′-AMP and pyrophosphate. The 5′-AMP formed from the reaction is detected by Transcreener® AMP2/GMP2 TR-FRET Assay (Bellbrook), containing AMP-tracer (HiLyte 647) and anti-AMP Terbium (Tb) donor. 5′-AMP generated in the reaction competes with AMP-tracer for binding with Anti-AMP Tb donor, and decreases TR-FRET signal.
Different concentrations of ENPP1 inhibitors are added to dry assay plate, followed by 2 μl 300 nM ATP. The reaction is initiated with the addition of 2 μl 8.5 μM human ENPP1 (generated by SBP Protein group). The assay reaction mixture contains a buffer of 50 mM Tris, pH 7.5, 1 mM TCEP, 2 mM MgCl2, 0.005% Tween 20, and 1% DMSO. The reaction is stopped after 1 hour at room temperature by adding 2 μL of 2 nM AMP-tracer and 2 μl of 2 nM Anti-AMP Tb donor in the 50 mM Tris, pH 7.5, buffer containing 20 mM EDTA and 0.1% Prionex. After 2 hour additional incubation at room temperature, the generated signal is measured using BMG Lab PHERASTAR instrument. 100% activity control samples (containing enzyme, substrate, buffer: MAX) and no enzyme control samples (containing substrate and buffer: MIN) are utilized to calculate percent inhibition (%) for each compound concentration well (COMPOUND) as follows.
The IC50 values are determined by fitting the inhibition curves with 2-parameter variable slope model in Graphpad Prism software using percent inhibition vs compound concentration data: […]
(In general: TR-FRET usually uses a lanthanide donor and a delayed reading to cut background.)

In experiment [2] the target is T2, ENPP3 (Homo sapiens, UniProt O14638).
T2 sequence (O14638 1-875): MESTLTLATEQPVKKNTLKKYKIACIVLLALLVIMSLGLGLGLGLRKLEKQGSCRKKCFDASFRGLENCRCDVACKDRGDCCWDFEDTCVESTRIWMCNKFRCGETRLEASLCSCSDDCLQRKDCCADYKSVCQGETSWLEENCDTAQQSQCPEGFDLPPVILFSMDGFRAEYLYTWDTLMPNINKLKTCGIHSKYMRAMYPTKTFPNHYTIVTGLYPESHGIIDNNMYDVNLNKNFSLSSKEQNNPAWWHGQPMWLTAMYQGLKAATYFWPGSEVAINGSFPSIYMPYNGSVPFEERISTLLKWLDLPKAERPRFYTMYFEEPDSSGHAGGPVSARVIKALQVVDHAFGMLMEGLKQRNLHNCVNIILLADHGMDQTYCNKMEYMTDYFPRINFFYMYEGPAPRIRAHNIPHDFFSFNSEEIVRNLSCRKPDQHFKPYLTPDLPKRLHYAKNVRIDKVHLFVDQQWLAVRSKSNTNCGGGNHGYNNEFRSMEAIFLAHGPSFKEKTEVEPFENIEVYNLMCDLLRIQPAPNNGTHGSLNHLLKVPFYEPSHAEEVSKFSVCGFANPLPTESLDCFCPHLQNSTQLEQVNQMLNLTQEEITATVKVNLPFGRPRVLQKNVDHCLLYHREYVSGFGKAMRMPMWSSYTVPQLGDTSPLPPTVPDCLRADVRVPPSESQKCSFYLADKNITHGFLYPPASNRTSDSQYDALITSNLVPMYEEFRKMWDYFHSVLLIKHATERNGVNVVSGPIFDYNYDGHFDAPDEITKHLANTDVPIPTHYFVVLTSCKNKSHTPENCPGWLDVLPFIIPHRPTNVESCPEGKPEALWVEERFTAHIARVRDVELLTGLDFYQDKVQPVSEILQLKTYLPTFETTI
Kind of experiment: ENPP3 Km ATP assay. To be noted: ATP at Km. It counts as biochemical.

Take `Cn1ncc2c(NCc3ccc(S(N)(=O)=O)cc3)ncnc21` [Example 2.25, 4-(((1-Methyl-1H-pyrazolo[3,4-d]pyrimidin-4-yl)amino)methyl)benzenesulfonamide]: the IC50 in experiment [1] was below 0.1 µM; in experiment [2] it was 1 to 20 µM. Taken in the same sequence, the figures for `Cc1csc2c(N3CCC(OCCCc4ccc(F)cc4)CC3)ncnc12` [Example 3.45, 4-(4-(3-(4-Fluorophenyl)propoxy)piperidin-1-yl)-7-methylthieno[3,2-d]pyrimidine] were above 20 µM and above 20 µM.

On to `Nc1nc(NCc2ccc(S(N)(=O)=O)cc2)c2c(-c3ccccc3)csc2n1` [Example 1.57, 4-((2-Amino-5-phenylthieno[2,3-d]pyrimidin-4-yl)aminomethyl)benzenesulfonamide], for which the IC50 in experiment [1] is below 0.1 µM; in experiment [2] it was 0.1 to 1 µM. Taken in the same sequence, the figures for `CN(C)CCNc1nc(NCc2ccc(S(N)(=O)=O)cc2)c2c(-c3ccccc3)csc2n1` [Example 1.60, 4-((2-(2-Dimethylamino)ethylamino-5-phenylthieno[2,3-d]pyrimidin-4-yl)aminomethyl)-benzenesulfonamide] were below 0.1 µM and below 0.1 µM. For `Cn1nc(-c2ccccc2)c2c(NCc3ccc(S(N)(=O)=O)cc3)nc(N3CCCCC3)nc21` [Example 2.132, 4-((1-Methyl-3-phenyl-6-piperidino-1H-pyrazolo[3,4-d]pyrimidin-4-yl)aminomethyl)benzenesulfonamide], in that order: below 0.1 µM and 0.1 to 1 µM. For `Cc1csc2c(N3CCC(NCCCc4ccncc4)C3)ncnc12` (centres unmarked) [Example 3.29, 1-(7-Methylthieno[3,2-d]pyrimidin-4-yl)-N-(3-(pyridin-4-yl)propyl)pyrrolidin-3-amine], in that order: 0.1 to 1 µM and above 20 µM. On to `Cn1ncc2c(NCc3cccs3)nc(-c3ccccn3)nc21` [Example 2.21, 1-Methyl-6-(pyridin-2-yl)-N-(thiophen-2-ylmethyl)-1H-pyrazolo[3,4-d]pyrimidin-4-amine], for which the IC50 in experiment [1] was above 20 µM. The same measure, in the same setting: to `Cc1ccncc1CCCNC1CCN(c2nc(NCCO)nc3c(C)csc23)CC1` [Example 3.71, 2-((7-Methyl-4-(4-((3-(4-methylpyridin-3-yl)propyl)amino)piperidin-1-yl)thieno[3,2-d]pyrimidin-2-yl)amino)ethanol] belongs 0.1 to 1 µM. `Cn1ncc2c(NCc3ccncc3)nc(-c3ccccn3)nc21` [Example 2.17, 1-Methyl-6-(pyridin-2-yl)-N-(pyridin-4-ylmethyl)-1H-pyrazolo[3,4-d]pyrimidin-4-amine]: in experiment [1], the IC50 lay within 1 to 20 µM. Same read-out and setting: to `COc1nc(N2CCC(NCCCc3ccncc3)CC2)c2scc(C)c2n1` [Example 3.66, 1-(2-Methoxy-7-methylthieno[3,2-d]pyrimidin-4-yl)-N-(3-(pyridin-4-yl)propyl)piperidin-4-amine] belongs 1 to 20 µM; to `Cc1csc2c(N3CCC(NCC4CC4c4ccncc4)CC3)nc(Cl)nc12` (centres unmarked) [Example 3.80, 1-(2-Chloro-7-methylthieno[3,2-d]pyrimidin-4-yl)-N-((2-(pyridin-4-yl)cyclopropyl)methyl)piperidin-4-amine], 1 to 20 µM; to `c1ccc(-c2csc3nc(-c4ccccn4)nc(NCc4ccco4)c23)cc1` [Example 1.35, Furan-2-ylmethyl-(5-phenyl-2-pyridin-2-yl-thieno[2,3-d]pyrimidin-4-yl)-amine], 1 to 20 µM. In turn, `Cc1ccncc1/C=C/CNC1CCN(c2ncnc3c(Br)csc23)CC1` [Example 3.62, (E)-1-(7-Bromothieno[3,2-d]pyrimidin-4-yl)-N-(3-(4-methylpyridin-3-yl)allyl)piperidin-4-amine] came in with an IC50 in experiment [1] below 0.1 µM. Same read-out and setting: the result for `Cc1ccncc1CCCNC1CCN(c2ncnc3ccsc23)CC1` [Example 3.63, N-(3-(4-Methylpyridin-3-yl)propyl)-1-(thieno[3,2-d]pyrimidin-4-yl)piperidin-4-amine] reads 1 to 20 µM; that for `NS(=O)(=O)c1cccc(CNc2nc(-c3ccccn3)nc3scc(-c4ccccc4)c23)c1` [Example 1.12, 3-[(5-Phenyl-2-pyridin-2-yl-thieno[2,3-d]pyrimidin-4-ylamino)-methyl]-benzenesulfonamide], 1 to 20 µM. On the same count and under the same terms, the result for `Cc1csc2c(N3CCC(NCCCc4ccncc4)CC3)nc(Cl)nc12` [Example 3.65, 1-(2-Chloro-7-methylthieno[3,2-d]pyrimidin-4-yl)-N-(3-(pyridin-4-yl)propyl)piperidin-4-amine] reads 1 to 20 µM; that for `COc1ccc(CNc2nc(-c3ccccn3)nc3c2cnn3C)cc1` [Example 2.11, N-(4-Methoxybenzyl)-1-methyl-6-(pyridin-2-yl)-1H-pyrazolo[3,4-d]pyrimidin-4-amine], above 20 µM; that for `COc1nc(N2CCC(NCCCc3cnccc3C)CC2)c2scc(C)c2n1` [Example 3.70, 1-(2-Methoxy-7-methylthieno[3,2-d]pyrimidin-4-yl)-N-(3-(4-methylpyridin-3-yl)propyl)piperidin-4-amine], 0.1 to 1 µM. On the same count and under the same terms, the result for `CN(c1nc(-c2ccccn2)nc2scc(-c3ccccc3)c12)C1CCCC1` [Example 1.36, Cyclopentyl-methyl-(5-phenyl-2-pyridin-2-yl-thieno[2,3-d]pyrimidin-4-yl)-amine] reads above 20 µM. In turn, `Cc1ccc(CNc2nc(-c3ccccn3)nc3c2cnn3C)o1` [Example 2.22, 1-Methyl-N-((5-methylfuran-2-yl)methyl)-6-(pyridin-2-yl)-1H-pyrazolo[3,4-d]pyrimidin-4-amine] showed an IC50 in experiment [1] above 20 µM. The same measure, in the same setting: the result for `Cn1ncc2c(NCc3ccc(Cl)cc3)nc(-c3ccccn3)nc21` [Example 2.13, N-(4-Chlorobenzyl)-1-methyl-6-(pyridin-2-yl)-1H-pyrazolo[3,4-d]pyrimidin-4-amine] reads above 20 µM; that for `Cn1ncc2c(NCc3ccccc3)nc(-c3ccccn3)nc21` [Example 2.9, N-Benzyl-1-methyl-6-(pyridin-2-yl)-1H-pyrazolo[3,4-d]pyrimidin-4-amine], above 20 µM; that for `Cn1ncc2c(NCc3ccc(S(N)(=O)=O)cc3)nc(-c3cccnc3)nc21` [Example 2.15, 4-(((1-Methyl-6-(pyridin-3-yl)-1H-pyrazolo[3,4-d]pyrimidin-4-yl)amino)methyl)-benzenesulfonamide], 1 to 20 µM.

As a reminder, the IC50 is the midpoint of a concentration-inhibition curve. Lower therefore signals higher potency.
